In the experiment the test system is LAPC9-AI prostate tumor xenografts. As to the kind of experiment: Established LAPC9-AI prostate tumor xenografts in tibiae, monotherapy and combination with Carboplatin. In kind it is in vivo, SCID mice. As to conditions: day 33; MAb 2 mg loading then 1.0 mg i.p. two times a week, 7 doses; Carboplatin 40 mg/kg i.v. days 7, 11, 15, 19, 22, 26; vs control antibody. On the procedure: FIG. 16. […] The tumors were allowed to establish for 7 days, at which time the animals were randomized and assigned to four different groups (n=10 in each group) as indicated in the graph. […] Carboplatin (40 mg/kg) was administered to the mice intravenously (i.v.) on days 7, 11, 15, 19, 22 and 26. On day 33 all mice were sacrificed and the tumors were excised and weighed on an electronic balance.
The tumors were allowed to establish for 7 days, at which time the animals were randomized and assigned to four different groups (n=10 in each group). […] Carboplatin (40 mg/kg) was administered to the mice intravenously (i.v.) on days 7, 11, 15, 19, 22 and 26. On day 33 all mice were sacrificed and the tumors were excised and weighed on an electronic balance.

The text below walks through data of patent publication US20100047166A1, “ANTIBODIES AND RELATED MOLECULES THAT BIND TO 58P1D12 PROTEINS” (priority 2008, published 2010).

For `N.N.O=C([O-])C1(C(=O)[O-])CCC1.[Pt+2]` [Carboplatin, reference compound], the “inhibition of tumor growth (tumor weight)” value worked out at 87%.
